Results: PubChem BioAssay AID330 (DTP/NCI, 2004)
Several values for one entry are separate records, joined by “and”; a condition that tells them apart may be missing. Identical values can stand only once. Toxic doses and inconclusive results are not listed. Rule for the calls: active = survival T/C of 150% or more; inactive = T/C below 125% in these data.

Test system: P388 leukemia ip, CD2F1 mice, survival T/C
Assay: NCI In Vivo Anticancer Drug Screen. Data for tumor model P388 Leukemia (intraperitoneal) in CD2F1 (CDF1) mice
Settings: endpoint: median survival time, higher = longer survival
How it was run: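 Mice carrying the transplanted tumor received test compound or vehicle. Survival was recorded in each group, and the value is the treated-group measurement divided by that of the vehicle-treated control group.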

[1] = dose: 100.0 mg/kg/injection, schedule: Q01DX009 (ip), vehicle: saline with Tween-80
[2] = dose: 200.0 mg/kg/injection, schedule: Q01DX009 (ip), vehicle: saline with Tween-80
[3] = dose: 400.0 mg/kg/injection, schedule: Q01DX009 (ip), vehicle: saline with Tween-80
[4] = dose: 60.0 mg/kg/injection, schedule: Q01DX005 (ip), vehicle: Klucel (hydroxypropylcellulose) (HPC)
[5] = dose: 120.0 mg/kg/injection, schedule: Q01DX005 (ip), vehicle: Klucel (hydroxypropylcellulose) (HPC)
[6] = dose: 240.0 mg/kg/injection, schedule: Q01DX005 (ip), vehicle: Klucel (hydroxypropylcellulose) (HPC)
[7] = dose: 50.0 mg/kg/injection, schedule: Q01DX005 (ip), vehicle: Klucel (hydroxypropylcellulose) (HPC)
[8] = dose: 100.0 mg/kg/injection, schedule: Q01DX005 (ip), vehicle: Klucel (hydroxypropylcellulose) (HPC)
[9] = dose: 200.0 mg/kg/injection, schedule: Q01DX005 (ip), vehicle: Klucel (hydroxypropylcellulose) (HPC)
[10] = dose: 50.0 mg/kg/injection, schedule: Q01DX005 (ip), vehicle: saline with Tween-80
[11] = dose: 100.0 mg/kg/injection, schedule: Q01DX005 (ip), vehicle: saline with Tween-80
[12] = dose: 200.0 mg/kg/injection, schedule: Q01DX005 (ip), vehicle: saline with Tween-80
[13] = dose: 50.0 mg/kg/injection, schedule: Q01DX009 (ip), vehicle: saline with Tween-80

Measured: T/C

COC(=O)c1c(C(=O)OC)c2ccc3ccccc3n2c1-c1ccccc1
inactive: dose: 12.5 mg/kg/injection, schedule: Q01DX001 (ip), vehicle: saline with Tween-80 115 % of control | dose: 25.0 mg/kg/injection, schedule: Q01DX001 (ip), vehicle: saline with Tween-80 94 % of control | dose: 50.0 mg/kg/injection, schedule: Q01DX001 (ip), vehicle: saline with Tween-80 94 % of control | dose: 200.0 mg/kg/injection, schedule: Q01DX001 (ip), vehicle: saline with Tween-80 93 % of control | dose: 400.0 mg/kg/injection, schedule: Q01DX001 (ip), vehicle: saline with Tween-80 100 % of control

Cc1ccc2[nH]c(C)c(C(=O)c3cccnc3)c2c1
inactive: dose: 100.0 mg/kg/injection, schedule: Q04DX003 (ip), vehicle: Klucel (hydroxypropylcellulose) (HPC) 92 % of control | dose: 200.0 mg/kg/injection, schedule: Q04DX003 (ip), vehicle: Klucel (hydroxypropylcellulose) (HPC) 91 % of control | dose: 400.0 mg/kg/injection, schedule: Q04DX003 (ip), vehicle: Klucel (hydroxypropylcellulose) (HPC) 110 % of control

CCOC(=O)C1OC(C2(C)OC3(OC4(C=CC3O)OC(C(C)C(=O)C(C)C(O)C(C)CC(C)c3c(Cl)cc(C)c(O)c3C(=O)O)C(C)CC4C)C(C)C2OC)CC1O (configuration not stated)
inactive: dose: 1.25 mg/kg/injection, schedule: Q01DX005 (ip), vehicle: Klucel (hydroxypropylcellulose) (HPC) 107 % of control | dose: 2.5 mg/kg/injection, schedule: Q01DX005 (ip), vehicle: Klucel (hydroxypropylcellulose) (HPC) 100 % of control

N#C/C(=C\c1cccnc1)C(N)=S
inactive: dose: 50.0 mg/kg/injection, schedule: Q01DX009 (ip), vehicle: saline 101 % of control | dose: 100.0 mg/kg/injection, schedule: Q01DX009 (ip), vehicle: saline 88 % of control | dose: 200.0 mg/kg/injection, schedule: Q01DX009 (ip), vehicle: saline 104 % of control

CON1C(=O)c2ccccc2C1=O
inactive: [1] 99 % of control | [2] 106 % of control | [3] 106 % of control

c1ccc2c(c1)[nH]c1c2nc2sccn21
inactive: [4] 115 % of control | [5] 115 % of control | [6] 116 % of control

CC1C(=O)OC2C1CCC1(C)C=CC(=O)C3(C)OC213 (configuration not stated)
inactive: [4] 100 % of control | [5] 104 % of control | [6] 105 % of control

CCC1(O)CC2CN(CCc3c([nH]c4ccccc34)C(C(=O)OC)(c3cc4c(cc3OC)N(C)C3C(O)(C(=O)OC)CC5(CC)C=CCN6CCC43C65)C2)C1 (configuration not stated)
active: dose: 4.0 mg/kg/injection, schedule: Q01DX001 (ip), vehicle: saline 150 % of control | dose: 8.0 mg/kg/injection, schedule: Q01DX001 (ip), vehicle: saline 155 % of control | dose: 16.0 mg/kg/injection, schedule: Q01DX001 (ip), vehicle: saline 165 % of control and 175 % of control | dose: 32.0 mg/kg/injection, schedule: Q01DX001 (ip), vehicle: saline 195 % of control and 205 % of control
inactive: dose: 1.0 mg/kg/injection, schedule: Q01DX001 (ip), vehicle: saline 120 % of control and 122 % of control

COc1ccc(CCN2C=CC(C#N)C(C(C)=O)=C2)cc1OC (configuration not stated)
inactive: [7] 99 % of control | [8] 94 % of control | [9] 90 % of control

Cc1ccc(C(=O)CCN(C)C)c(C)c1
inactive: dose: 15.0 mg/kg/injection, schedule: Q01DX005 (ip), vehicle: saline 106 % of control | dose: 30.0 mg/kg/injection, schedule: Q01DX005 (ip), vehicle: saline 100 % of control | dose: 60.0 mg/kg/injection, schedule: Q01DX005 (ip), vehicle: saline 89 % of control and 97 % of control

Cc1ccc(N2CC(=O)N3CCCC(C)N3C(=O)C2)cc1 (configuration not stated)
inactive: [10] 99 % of control | [11] 99 % of control | [12] 99 % of control

CN(C)/N=N/c1nc[nH]c1C(N)=O
inactive: dose: 12.5 mg/kg/injection, schedule: Q01DX005 (ip), vehicle: Klucel (hydroxypropylcellulose) (HPC) 95 % of control | dose: 25.0 mg/kg/injection, schedule: Q01DX005 (ip), vehicle: Klucel (hydroxypropylcellulose) (HPC) 105 % of control | dose: 25.0 mg/kg/injection, schedule: Q01DX009 (ip), vehicle: saline with Tween-80 123 % of control | [7] 105 % of control | [10] 106 % of control | [13] 120 % of control | [8] 115 % of control | [11] 119 % of control | [1] 120 % of control | [9] 122 % of control | [2] 103 % of control | dose: 400.0 mg/kg/injection, schedule: Q01DX005 (ip), vehicle: saline with Tween-80 121 % of control | [3] 86 % of control
active: dose: 150.0 mg/kg/injection, schedule: Q01DX005 (ip), vehicle: distilled water + Tween-80 166 % of control | dose: 300.0 mg/kg/injection, schedule: Q01DX005 (ip), vehicle: distilled water + Tween-80 156 % of control

CC1(C)C(C#N)C(=O)NC(=O)C1C#N (configuration not stated)
inactive: dose: 12.5 mg/kg/injection, schedule: Q01DX009 (ip), vehicle: water 97 % of control | dose: 25.0 mg/kg/injection, schedule: Q01DX009 (ip), vehicle: water 95 % of control | dose: 50.0 mg/kg/injection, schedule: Q01DX009 (ip), vehicle: water 93 % of control | dose: 100.0 mg/kg/injection, schedule: Q01DX009 (ip), vehicle: water 104 % of control | dose: 200.0 mg/kg/injection, schedule: Q01DX009 (ip), vehicle: water 101 % of control

O=C1CC2(C(=O)O1)C1C(=O)OC(=O)C1C1c3ccccc3C=NN12 (configuration not stated)
inactive: [13] 98 % of control | [1] 93 % of control | [2] 100 % of control

CC(N1CCS(=O)(=O)CC1)P(=O)(O)O (configuration not stated)
inactive: [10] 90 % of control | [11] 99 % of control | [12] 100 % of control

CNC(=O)c1ccccc1NC(=O)CCC(=O)O
inactive: dose: 100.0 mg/kg/injection, schedule: Q04DX003 (ip), vehicle: saline 100 % of control | dose: 200.0 mg/kg/injection, schedule: Q04DX003 (ip), vehicle: saline 99 % of control | dose: 400.0 mg/kg/injection, schedule: Q04DX003 (ip), vehicle: saline 100 % of control

O=C(COc1ccc(Cl)cc1Cl)Nc1ccc(I)cc1C(=O)O
inactive: dose: 50.0 mg/kg/injection, schedule: Q01DX009 (ip), vehicle: Klucel (hydroxypropylcellulose) (HPC) 94 % of control | dose: 100.0 mg/kg/injection, schedule: Q01DX009 (ip), vehicle: Klucel (hydroxypropylcellulose) (HPC) 92 % of control | dose: 200.0 mg/kg/injection, schedule: Q01DX009 (ip), vehicle: Klucel (hydroxypropylcellulose) (HPC) 91 % of control

CCN1C(=O)CSC1=S
inactive: dose: 6.25 mg/kg/injection, schedule: Q04DX002 (ip), vehicle: Klucel (hydroxypropylcellulose) (HPC) 112 % of control | dose: 12.5 mg/kg/injection, schedule: Q04DX002 (ip), vehicle: Klucel (hydroxypropylcellulose) (HPC) 110 % of control | dose: 25.0 mg/kg/injection, schedule: Q04DX002 (ip), vehicle: Klucel (hydroxypropylcellulose) (HPC) 105 % of control | dose: 50.0 mg/kg/injection, schedule: Q04DX002 (ip), vehicle: Klucel (hydroxypropylcellulose) (HPC) 109 % of control
